Source: ChEMBL document CHEMBL4507276 (2021)

Experiments:
[1] = biological target: T1, Alpha-2A adrenergic receptor (Homo sapiens) (UniProt P08913); assay: ALPHA2A/HU Cerep selectivity data (BI); conditions: Compound concentration 20.0 uM
T1 sequence (whole entry): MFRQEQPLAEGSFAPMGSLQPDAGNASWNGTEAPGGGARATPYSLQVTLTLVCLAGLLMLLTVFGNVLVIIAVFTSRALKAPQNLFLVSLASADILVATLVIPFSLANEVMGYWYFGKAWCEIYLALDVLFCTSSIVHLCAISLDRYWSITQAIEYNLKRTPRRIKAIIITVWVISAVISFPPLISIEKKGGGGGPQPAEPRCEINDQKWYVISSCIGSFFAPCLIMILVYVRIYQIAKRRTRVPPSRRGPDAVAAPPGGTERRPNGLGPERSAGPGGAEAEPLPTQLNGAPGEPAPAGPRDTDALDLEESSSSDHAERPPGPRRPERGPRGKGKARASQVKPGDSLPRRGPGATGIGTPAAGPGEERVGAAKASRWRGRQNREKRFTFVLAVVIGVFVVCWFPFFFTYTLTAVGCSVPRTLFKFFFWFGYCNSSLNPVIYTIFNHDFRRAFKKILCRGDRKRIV

[2] = biological target: Acetylcholinesterase (Homo sapiens) (UniProt P22303); assay: ACHE/H Cerep selectivity data (BI); conditions: Compound concentration 20.0 uM
[3] = biological target: Dual specificity tyrosine-phosphorylation-regulated kinase 4 (Homo sapiens) (UniProt Q9NR20); assay: DYRK4 Invitrogen selectivity data (BI); conditions: Compound concentration 3.0 uM
[4] = biological target: Serine/threonine-protein kinase 26 (Homo sapiens) (UniProt Q9P289); assay: MST4 Invitrogen selectivity data (BI); conditions: Compound concentration 3.0 uM
[5] = biological target: Tyrosine-protein kinase ABL1 (Homo sapiens) (UniProt P00519); assay: ABL1 Invitrogen selectivity data (BI); conditions: Compound concentration 3.0 uM
[6] = biological target: T2, 5-hydroxytryptamine receptor 3A (Homo sapiens) (UniProt P46098); assay: 5HT3/H Cerep selectivity data (BI); conditions: Compound concentration 20.0 uM
T2 sequence (whole entry): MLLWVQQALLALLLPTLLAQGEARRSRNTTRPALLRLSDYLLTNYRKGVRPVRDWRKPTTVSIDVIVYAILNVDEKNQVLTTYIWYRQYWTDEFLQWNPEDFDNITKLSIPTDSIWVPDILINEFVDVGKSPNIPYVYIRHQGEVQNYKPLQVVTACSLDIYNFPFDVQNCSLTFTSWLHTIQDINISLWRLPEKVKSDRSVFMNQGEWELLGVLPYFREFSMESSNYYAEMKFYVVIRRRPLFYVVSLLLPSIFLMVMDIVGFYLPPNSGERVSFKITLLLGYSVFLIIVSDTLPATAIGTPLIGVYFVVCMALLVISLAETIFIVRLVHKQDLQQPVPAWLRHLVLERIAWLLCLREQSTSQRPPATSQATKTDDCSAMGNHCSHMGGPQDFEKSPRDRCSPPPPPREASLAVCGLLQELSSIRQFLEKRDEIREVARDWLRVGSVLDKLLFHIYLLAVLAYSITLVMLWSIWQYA

[7] = biological target: Tyrosine-protein kinase JAK1 (Homo sapiens) (UniProt P23458); assay: JAK1 Invitrogen selectivity data (BI); conditions: Compound concentration 3.0 uM
[8] = biological target: Protein kinase C alpha type (Mus musculus) (UniProt P20444); assay: PHORBOLE/M Eurofins-Panlabs selectivity data (BI); conditions: Compound concentration 10.0 uM
[9] = biological target: Epidermal growth factor receptor (Homo sapiens) (UniProt P00533); assay: EGFR Invitrogen selectivity data (BI); conditions: Compound concentration 3.0 uM
[10] = biological target: Casein kinase II subunit alpha (Homo sapiens) (UniProt P68400); assay: CSNK2A1 Invitrogen selectivity data (BI); conditions: Compound concentration 3.0 uM
[11] = biological target: Tyrosine-protein kinase Fgr (Homo sapiens) (UniProt P09769); assay: FGR Invitrogen selectivity data (BI); conditions: Compound concentration 3.0 uM
[12] = biological target: Peroxisome proliferator-activated receptor gamma (Homo sapiens) (UniProt P37231); assay: PPARG/H AG Cerep selectivity data (BI); conditions: filed as agonist, Compound concentration 20.0 uM
[13] = biological target: Cannabinoid receptor 1 (Homo sapiens) (UniProt P21554); assay: CB1 Eurofins-Panlabs selectivity data (BI); conditions: Compound concentration 10.0 uM
[14] = biological target: Urotensin-2 receptor (Homo sapiens) (UniProt Q9UKP6); assay: UT1/H AG Cerep selectivity data (BI); conditions: filed as agonist, Compound concentration 20.0 uM
[15] = biological target: SRSF protein kinase 3 (Homo sapiens) (UniProt Q9UPE1); assay: STK23 Invitrogen selectivity data (BI); conditions: Compound concentration 3.0 uM
[16] = biological target: T3, Serine/threonine-protein kinase D2 (Homo sapiens) (UniProt Q9BZL6); assay: PRKD2 Invitrogen selectivity data (BI); conditions: Compound concentration 3.0 uM
T3 sequence (whole entry): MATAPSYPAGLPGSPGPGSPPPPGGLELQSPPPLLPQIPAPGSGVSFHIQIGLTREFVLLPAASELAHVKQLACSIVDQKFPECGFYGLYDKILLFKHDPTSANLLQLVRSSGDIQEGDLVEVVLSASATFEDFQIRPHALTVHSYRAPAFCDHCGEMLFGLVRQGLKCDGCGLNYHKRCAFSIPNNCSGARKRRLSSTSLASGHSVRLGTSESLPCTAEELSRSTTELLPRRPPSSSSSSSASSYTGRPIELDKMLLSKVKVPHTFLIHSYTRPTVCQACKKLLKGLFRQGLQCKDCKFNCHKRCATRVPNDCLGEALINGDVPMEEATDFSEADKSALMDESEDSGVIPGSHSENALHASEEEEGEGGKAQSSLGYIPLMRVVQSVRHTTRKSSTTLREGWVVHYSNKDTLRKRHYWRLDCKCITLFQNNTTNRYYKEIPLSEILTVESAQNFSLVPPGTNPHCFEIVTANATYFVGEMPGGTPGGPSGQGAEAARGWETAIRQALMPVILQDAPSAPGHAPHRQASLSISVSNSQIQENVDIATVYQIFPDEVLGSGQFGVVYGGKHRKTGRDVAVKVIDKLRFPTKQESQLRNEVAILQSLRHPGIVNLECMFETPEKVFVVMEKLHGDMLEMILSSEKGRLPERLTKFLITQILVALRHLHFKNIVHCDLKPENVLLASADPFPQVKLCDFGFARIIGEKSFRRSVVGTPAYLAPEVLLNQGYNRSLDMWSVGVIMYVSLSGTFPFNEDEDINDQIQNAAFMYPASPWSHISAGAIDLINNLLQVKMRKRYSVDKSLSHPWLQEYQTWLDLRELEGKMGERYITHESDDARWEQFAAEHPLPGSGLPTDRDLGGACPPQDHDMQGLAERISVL

[17] = biological target: Fibroblast growth factor receptor 1 (Homo sapiens) (UniProt P11362); assay: FGFR1 Invitrogen selectivity data (BI); conditions: Compound concentration 3.0 uM
[18] = biological target: STE20-like serine/threonine-protein kinase (Homo sapiens) (UniProt Q9H2G2); assay: SLK Invitrogen selectivity data (BI); conditions: Compound concentration 3.0 uM
[19] = biological target: PI3-kinase p110-alpha/p85-alpha (Homo sapiens) (UniProt P27986+P42336); assay: PIK3CAPIK3R1 Invitrogen selectivity data (BI); assay type: protein-complex assay; conditions: Compound concentration 3.0 uM
[20] = biological target: Cyclin-dependent kinase 5/CDK5 activator 1 (Homo sapiens) (UniProt Q00535+Q15078); assay: CDK5/P35 Invitrogen selectivity data (BI); assay type: protein-complex assay; conditions: Compound concentration 3.0 uM
[21] = biological target: Phosphatidylinositol 4-phosphate 3-kinase C2 domain-containing subunit beta (Homo sapiens) (UniProt O00750); assay: PIK3C2B Invitrogen selectivity data (BI); conditions: Compound concentration 3.0 uM

Measured: residual activity

Cannabinoid receptor 1 (Homo sapiens), sequence (P21554 whole entry): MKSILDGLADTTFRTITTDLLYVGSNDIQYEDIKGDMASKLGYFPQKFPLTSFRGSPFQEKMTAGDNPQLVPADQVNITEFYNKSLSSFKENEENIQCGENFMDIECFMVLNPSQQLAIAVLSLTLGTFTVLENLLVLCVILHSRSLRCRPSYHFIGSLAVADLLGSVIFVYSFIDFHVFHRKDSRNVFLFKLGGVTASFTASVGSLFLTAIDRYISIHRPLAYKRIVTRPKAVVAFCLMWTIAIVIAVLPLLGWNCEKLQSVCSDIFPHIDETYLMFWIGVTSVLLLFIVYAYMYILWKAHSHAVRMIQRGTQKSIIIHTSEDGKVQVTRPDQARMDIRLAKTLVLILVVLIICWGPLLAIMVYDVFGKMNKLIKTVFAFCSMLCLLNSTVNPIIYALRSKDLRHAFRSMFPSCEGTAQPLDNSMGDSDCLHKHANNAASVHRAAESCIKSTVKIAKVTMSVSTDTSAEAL
Casein kinase II subunit alpha (Homo sapiens), sequence (P68400 whole entry, looked up): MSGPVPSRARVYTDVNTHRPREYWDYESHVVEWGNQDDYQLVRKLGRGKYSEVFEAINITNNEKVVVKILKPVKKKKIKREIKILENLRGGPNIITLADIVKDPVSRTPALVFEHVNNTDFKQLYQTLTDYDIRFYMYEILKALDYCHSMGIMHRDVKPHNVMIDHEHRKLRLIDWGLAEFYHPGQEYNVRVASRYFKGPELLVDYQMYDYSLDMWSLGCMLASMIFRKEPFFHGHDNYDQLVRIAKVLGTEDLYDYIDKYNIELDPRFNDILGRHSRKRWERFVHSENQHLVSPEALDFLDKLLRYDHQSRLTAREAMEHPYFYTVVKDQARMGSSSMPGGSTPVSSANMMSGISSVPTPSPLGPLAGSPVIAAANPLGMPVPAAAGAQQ
Tyrosine-protein kinase ABL1 (Homo sapiens), sequence (P00519 whole entry): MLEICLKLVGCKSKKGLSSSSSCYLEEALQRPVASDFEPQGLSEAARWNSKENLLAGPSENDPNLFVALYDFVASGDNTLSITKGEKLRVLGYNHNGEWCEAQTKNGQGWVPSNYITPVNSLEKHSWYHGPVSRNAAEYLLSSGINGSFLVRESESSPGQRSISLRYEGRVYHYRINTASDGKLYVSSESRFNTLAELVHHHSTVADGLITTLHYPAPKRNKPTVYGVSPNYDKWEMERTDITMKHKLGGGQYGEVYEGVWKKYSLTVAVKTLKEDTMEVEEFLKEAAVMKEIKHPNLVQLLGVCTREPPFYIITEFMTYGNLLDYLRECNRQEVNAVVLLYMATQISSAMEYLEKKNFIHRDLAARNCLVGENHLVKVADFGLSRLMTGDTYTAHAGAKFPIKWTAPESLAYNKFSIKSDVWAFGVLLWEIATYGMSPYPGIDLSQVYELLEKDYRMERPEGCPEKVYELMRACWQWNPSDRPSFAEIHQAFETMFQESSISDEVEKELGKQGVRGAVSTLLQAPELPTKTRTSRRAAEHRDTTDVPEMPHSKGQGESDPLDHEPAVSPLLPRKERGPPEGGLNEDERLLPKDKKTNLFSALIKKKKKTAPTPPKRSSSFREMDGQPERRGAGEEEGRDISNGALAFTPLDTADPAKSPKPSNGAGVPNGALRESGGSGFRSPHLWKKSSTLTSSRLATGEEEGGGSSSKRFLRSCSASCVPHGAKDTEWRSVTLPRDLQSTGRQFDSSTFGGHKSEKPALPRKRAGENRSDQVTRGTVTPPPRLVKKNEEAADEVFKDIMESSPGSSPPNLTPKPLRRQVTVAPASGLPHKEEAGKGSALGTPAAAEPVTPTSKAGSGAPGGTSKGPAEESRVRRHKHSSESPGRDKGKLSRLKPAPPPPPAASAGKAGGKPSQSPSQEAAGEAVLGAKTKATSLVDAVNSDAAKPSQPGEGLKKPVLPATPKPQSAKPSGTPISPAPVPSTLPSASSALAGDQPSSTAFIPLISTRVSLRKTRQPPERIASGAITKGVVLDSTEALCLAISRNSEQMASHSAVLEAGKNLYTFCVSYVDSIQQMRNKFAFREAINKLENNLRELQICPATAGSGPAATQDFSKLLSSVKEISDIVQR
Tyrosine-protein kinase Fgr (Homo sapiens), sequence (P09769 2-529 limits assumed): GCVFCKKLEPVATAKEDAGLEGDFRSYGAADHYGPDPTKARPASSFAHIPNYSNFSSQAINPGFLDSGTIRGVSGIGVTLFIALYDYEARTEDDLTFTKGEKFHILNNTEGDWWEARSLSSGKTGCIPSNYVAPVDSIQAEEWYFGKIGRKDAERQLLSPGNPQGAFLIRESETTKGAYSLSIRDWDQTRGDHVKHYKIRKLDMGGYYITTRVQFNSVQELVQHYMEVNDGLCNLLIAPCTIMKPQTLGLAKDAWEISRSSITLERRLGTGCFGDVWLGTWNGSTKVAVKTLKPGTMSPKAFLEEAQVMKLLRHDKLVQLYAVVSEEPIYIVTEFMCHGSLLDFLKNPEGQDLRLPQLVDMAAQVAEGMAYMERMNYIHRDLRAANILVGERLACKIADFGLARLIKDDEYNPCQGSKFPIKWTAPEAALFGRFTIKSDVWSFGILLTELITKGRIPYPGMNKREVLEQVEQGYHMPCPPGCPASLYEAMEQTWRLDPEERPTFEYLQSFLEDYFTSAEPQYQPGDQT
Phosphatidylinositol 4-phosphate 3-kinase C2 domain-containing subunit beta (Homo sapiens), sequence (O00750 whole entry, the tested form may be a part): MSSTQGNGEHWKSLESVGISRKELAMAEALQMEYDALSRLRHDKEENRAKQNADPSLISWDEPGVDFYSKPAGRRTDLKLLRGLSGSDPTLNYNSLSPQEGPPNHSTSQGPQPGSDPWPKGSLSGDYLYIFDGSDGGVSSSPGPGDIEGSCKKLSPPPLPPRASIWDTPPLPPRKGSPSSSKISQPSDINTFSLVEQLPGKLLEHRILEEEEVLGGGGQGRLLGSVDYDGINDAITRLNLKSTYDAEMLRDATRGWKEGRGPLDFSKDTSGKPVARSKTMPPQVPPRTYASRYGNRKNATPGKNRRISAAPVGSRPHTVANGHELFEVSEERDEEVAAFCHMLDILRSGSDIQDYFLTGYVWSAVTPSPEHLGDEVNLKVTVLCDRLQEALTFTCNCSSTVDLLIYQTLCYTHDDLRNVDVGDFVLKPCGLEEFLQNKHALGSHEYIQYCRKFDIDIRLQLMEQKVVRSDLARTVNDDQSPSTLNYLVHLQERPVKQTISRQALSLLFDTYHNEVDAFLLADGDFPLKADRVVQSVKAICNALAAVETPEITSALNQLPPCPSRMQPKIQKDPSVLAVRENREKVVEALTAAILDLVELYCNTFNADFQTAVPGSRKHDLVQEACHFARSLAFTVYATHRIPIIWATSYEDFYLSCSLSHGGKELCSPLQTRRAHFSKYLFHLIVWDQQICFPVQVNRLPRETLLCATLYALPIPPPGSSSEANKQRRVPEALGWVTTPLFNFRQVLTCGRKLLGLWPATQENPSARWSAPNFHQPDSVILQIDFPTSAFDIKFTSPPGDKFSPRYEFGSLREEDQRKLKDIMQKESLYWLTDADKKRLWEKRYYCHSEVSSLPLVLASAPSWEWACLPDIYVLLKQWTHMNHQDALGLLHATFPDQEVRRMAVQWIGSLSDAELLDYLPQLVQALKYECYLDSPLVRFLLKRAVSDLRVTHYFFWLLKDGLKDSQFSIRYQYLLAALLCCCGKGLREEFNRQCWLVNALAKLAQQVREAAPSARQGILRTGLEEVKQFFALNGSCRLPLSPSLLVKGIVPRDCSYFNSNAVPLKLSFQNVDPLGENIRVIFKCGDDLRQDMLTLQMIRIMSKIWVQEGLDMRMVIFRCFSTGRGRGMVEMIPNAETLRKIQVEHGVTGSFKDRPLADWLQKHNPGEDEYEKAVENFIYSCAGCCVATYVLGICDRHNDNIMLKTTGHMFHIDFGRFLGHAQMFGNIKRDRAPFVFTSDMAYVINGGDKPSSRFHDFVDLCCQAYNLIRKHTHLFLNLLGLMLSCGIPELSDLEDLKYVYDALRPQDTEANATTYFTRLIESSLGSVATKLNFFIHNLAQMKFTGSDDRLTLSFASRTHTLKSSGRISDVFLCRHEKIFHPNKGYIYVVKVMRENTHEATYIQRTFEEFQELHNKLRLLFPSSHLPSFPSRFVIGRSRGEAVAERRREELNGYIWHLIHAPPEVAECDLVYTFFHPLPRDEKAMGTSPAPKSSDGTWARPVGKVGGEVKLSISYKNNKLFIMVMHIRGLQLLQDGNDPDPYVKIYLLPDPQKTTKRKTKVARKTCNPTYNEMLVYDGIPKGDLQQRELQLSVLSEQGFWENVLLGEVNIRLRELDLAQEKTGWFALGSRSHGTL
Dual specificity tyrosine-phosphorylation-regulated kinase 4 (Homo sapiens), sequence (Q9NR20 whole entry): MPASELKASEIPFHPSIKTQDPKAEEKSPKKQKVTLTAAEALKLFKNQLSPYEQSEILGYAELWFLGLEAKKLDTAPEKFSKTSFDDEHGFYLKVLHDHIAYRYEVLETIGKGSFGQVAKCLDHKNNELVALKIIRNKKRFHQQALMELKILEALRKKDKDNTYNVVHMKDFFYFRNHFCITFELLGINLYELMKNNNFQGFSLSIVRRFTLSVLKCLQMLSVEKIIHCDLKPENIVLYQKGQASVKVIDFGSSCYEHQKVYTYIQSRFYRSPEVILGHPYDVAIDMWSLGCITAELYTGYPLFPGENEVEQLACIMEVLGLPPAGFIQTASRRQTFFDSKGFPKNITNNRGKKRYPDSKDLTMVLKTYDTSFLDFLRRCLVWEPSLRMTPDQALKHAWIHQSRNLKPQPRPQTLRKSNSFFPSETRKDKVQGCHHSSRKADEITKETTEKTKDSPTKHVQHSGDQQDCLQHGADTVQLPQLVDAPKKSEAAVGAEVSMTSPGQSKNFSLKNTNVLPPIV
Urotensin-2 receptor (Homo sapiens), sequence (Q9UKP6 whole entry): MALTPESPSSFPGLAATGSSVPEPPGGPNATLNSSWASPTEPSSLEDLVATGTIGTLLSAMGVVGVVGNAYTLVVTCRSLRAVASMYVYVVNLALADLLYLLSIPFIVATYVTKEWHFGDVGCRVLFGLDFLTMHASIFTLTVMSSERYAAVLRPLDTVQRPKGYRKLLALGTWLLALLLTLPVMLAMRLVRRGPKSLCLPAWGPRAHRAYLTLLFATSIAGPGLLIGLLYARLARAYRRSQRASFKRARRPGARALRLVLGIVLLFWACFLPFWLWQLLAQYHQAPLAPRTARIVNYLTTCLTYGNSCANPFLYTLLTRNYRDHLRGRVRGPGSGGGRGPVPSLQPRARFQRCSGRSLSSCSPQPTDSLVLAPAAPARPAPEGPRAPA

CN(C)C(=O)Cn1cc(-c2nc([C@@](C)(c3ccc(-c4cnc(N)nc4)cc3)C3CC3)no2)cn1 [BI 665915]
inactive: [1] 101% | [2] 98% | [3] 99.5% | [4] 99% | [5] 84% | [6] 100% | [7] 100% | [8] 104% | [9] 104% | [10] 97% | [11] 90.5% | [12] 93% | [13] 91% | [14] 99% | [15] 96.5% | [16] 95% | [17] 100% | [18] 99% | [19] 104% | [20] 100% | [21] 108%
